Laboratory results reported in ChEMBL document CHEMBL3044736, “Synthesis, characterization, solvatochromic properties, and antimicrobial evaluation of 5-acetyl-2-thioxo-dihydro-pyrimidine-4,6-dione-based chalcones” (2013).
≈ marks a conversion by molar mass, not a printed value.

Legend:
Type in all cases: functional
[1] = system: Penicillium; test: Antimicrobial activity against Penicillium wild strain assessed as diameter of growth inhibition zone at 250 ug/ml after 48-96 hr by agar cup diffusion method; conditions: read-out: DIZ
[2] = system: Penicillium; test: Antimicrobial activity against Penicillium wild strain assessed as diameter of growth inhibition zone at 100 ug/ml after 48-96 hr by agar cup diffusion method; conditions: read-out: DIZ
[3] = system: Trichophyton rubrum; test: Antimicrobial activity against Trichophyton rubrum MTCC 296 assessed as diameter of growth inhibition zone at 100 ug/ml after 48-96 hr by agar cup diffusion method; conditions: read-out: DIZ
[4] = system: Aspergillus clavatus; test: Antimicrobial activity against Aspergillus clavatus MTCC 1323 assessed as diameter of growth inhibition zone at 100 ug/ml after 48-96 hr by agar cup diffusion method; conditions: read-out: DIZ
[5] = system: Candida albicans; test: Antimicrobial activity against Candida albicans MTCC 227 assessed as diameter of growth inhibition zone at 100 ug/ml after 48-96 hr by agar cup diffusion method; conditions: read-out: DIZ
[6] = system: Penicillium; test: Antimicrobial activity against Penicillium wild strain assessed as diameter of growth inhibition zone at 50 ug/ml after 48-96 hr by agar cup diffusion method; conditions: read-out: DIZ
[7] = system: Trichophyton rubrum; test: Antimicrobial activity against Trichophyton rubrum MTCC 296 assessed as diameter of growth inhibition zone at 50 ug/ml after 48-96 hr by agar cup diffusion method; conditions: read-out: DIZ
[8] = system: Aspergillus clavatus; test: Antimicrobial activity against Aspergillus clavatus MTCC 1323 assessed as diameter of growth inhibition zone at 50 ug/ml after 48-96 hr by agar cup diffusion method; conditions: read-out: DIZ
[9] = system: Candida albicans; test: Antimicrobial activity against Candida albicans MTCC 227 assessed as diameter of growth inhibition zone at 50 ug/ml after 48-96 hr by agar cup diffusion method; conditions: read-out: DIZ
[10] = system: Penicillium; test: Antimicrobial activity against Penicillium wild strain assessed as diameter of growth inhibition zone at 25 ug/ml after 48-96 hr by agar cup diffusion method; conditions: read-out: DIZ
[11] = system: Trichophyton rubrum; test: Antimicrobial activity against Trichophyton rubrum MTCC 296 assessed as diameter of growth inhibition zone at 25 ug/ml after 48-96 hr by agar cup diffusion method; conditions: read-out: DIZ
[12] = system: Aspergillus clavatus; test: Antimicrobial activity against Aspergillus clavatus MTCC 1323 assessed as diameter of growth inhibition zone at 25 ug/ml after 48-96 hr by agar cup diffusion method; conditions: read-out: DIZ
[13] = system: Candida albicans; test: Antimicrobial activity against Candida albicans MTCC 227 assessed as diameter of growth inhibition zone at 25 ug/ml after 48-96 hr by agar cup diffusion method; conditions: read-out: DIZ
[14] = system: Penicillium; test: Antimicrobial activity against Penicillium wild strain by agar cup diffusion method
[15] = system: Aspergillus clavatus; test: Antimicrobial activity against Aspergillus clavatus MTCC 1323 by agar cup diffusion method
[16] = system: Pseudomonas aeruginosa; test: Antimicrobial activity against Pseudomonas aeruginosa MTCC 1688 assessed as diameter of growth inhibition zone at 25 ug/ml after 18-24 hr by agar cup diffusion method; conditions: read-out: DIZ
[17] = system: Escherichia coli; test: Antimicrobial activity against Escherichia coli MTCC 443 assessed as diameter of growth inhibition zone at 25 ug/ml after 18-24 hr by agar cup diffusion method; conditions: read-out: DIZ
[18] = system: Staphylococcus aureus; test: Antimicrobial activity against Staphylococcus aureus MTCC 96 assessed as diameter of growth inhibition zone at 25 ug/ml after 18-24 hr by agar cup diffusion method; conditions: read-out: DIZ
[19] = system: Streptococcus pyogenes; test: Antimicrobial activity against Streptococcus pyogenes MTCC 442 assessed as diameter of growth inhibition zone at 25 ug/ml after 18-24 hr by agar cup diffusion method; conditions: read-out: DIZ
[20] = system: Klebsiella pneumoniae; test: Antimicrobial activity against Klebsiella pneumoniae MTCC 109 by agar cup diffusion method
[21] = system: Escherichia coli; test: Antimicrobial activity against Escherichia coli MTCC 443 by agar cup diffusion method
[22] = system: Pseudomonas aeruginosa; test: Antimicrobial activity against Pseudomonas aeruginosa MTCC 1688 by agar cup diffusion method
[23] = system: Staphylococcus aureus; test: Antimicrobial activity against Staphylococcus aureus MTCC 96 by agar cup diffusion method
[24] = system: Streptococcus pyogenes; test: Antimicrobial activity against Streptococcus pyogenes MTCC 442 by agar cup diffusion method
[25] = system: Trichophyton rubrum; test: Antimicrobial activity against Trichophyton rubrum MTCC 296 by agar cup diffusion method
[26] = system: Candida albicans; test: Antimicrobial activity against Candida albicans MTCC 227 by agar cup diffusion method
[27] = system: Klebsiella pneumoniae; test: Antimicrobial activity against Klebsiella pneumoniae MTCC 109 assessed as diameter of growth inhibition zone at 250 ug/ml after 18-24 hr by agar cup diffusion method; conditions: read-out: DIZ
[28] = system: Pseudomonas aeruginosa; test: Antimicrobial activity against Pseudomonas aeruginosa MTCC 1688 assessed as diameter of growth inhibition zone at 250 ug/ml after 18-24 hr by agar cup diffusion method; conditions: read-out: DIZ
[29] = system: Escherichia coli; test: Antimicrobial activity against Escherichia coli MTCC 443 assessed as diameter of growth inhibition zone at 250 ug/ml after 18-24 hr by agar cup diffusion method; conditions: read-out: DIZ
[30] = system: Staphylococcus aureus; test: Antimicrobial activity against Staphylococcus aureus MTCC 96 assessed as diameter of growth inhibition zone at 250 ug/ml after 18-24 hr by agar cup diffusion method; conditions: read-out: DIZ
[31] = system: Streptococcus pyogenes; test: Antimicrobial activity against Streptococcus pyogenes MTCC 442 assessed as diameter of growth inhibition zone at 250 ug/ml after 18-24 hr by agar cup diffusion method; conditions: read-out: DIZ
[32] = system: Klebsiella pneumoniae; test: Antimicrobial activity against Klebsiella pneumoniae MTCC 109 assessed as diameter of growth inhibition zone at 100 ug/ml after 18-24 hr by agar cup diffusion method; conditions: read-out: DIZ
[33] = system: Pseudomonas aeruginosa; test: Antimicrobial activity against Pseudomonas aeruginosa MTCC 1688 assessed as diameter of growth inhibition zone at 100 ug/ml after 18-24 hr by agar cup diffusion method; conditions: read-out: DIZ
[34] = system: Escherichia coli; test: Antimicrobial activity against Escherichia coli MTCC 443 assessed as diameter of growth inhibition zone at 100 ug/ml after 18-24 hr by agar cup diffusion method; conditions: read-out: DIZ
[35] = system: Staphylococcus aureus; test: Antimicrobial activity against Staphylococcus aureus MTCC 96 assessed as diameter of growth inhibition zone at 100 ug/ml after 18-24 hr by agar cup diffusion method; conditions: read-out: DIZ
[36] = system: Streptococcus pyogenes; test: Antimicrobial activity against Streptococcus pyogenes MTCC 442 assessed as diameter of growth inhibition zone at 100 ug/ml after 18-24 hr by agar cup diffusion method; conditions: read-out: DIZ
[37] = system: Klebsiella pneumoniae; test: Antimicrobial activity against Klebsiella pneumoniae MTCC 109 assessed as diameter of growth inhibition zone at 50 ug/ml after 18-24 hr by agar cup diffusion method; conditions: read-out: DIZ
[38] = system: Pseudomonas aeruginosa; test: Antimicrobial activity against Pseudomonas aeruginosa MTCC 1688 assessed as diameter of growth inhibition zone at 50 ug/ml after 18-24 hr by agar cup diffusion method; conditions: read-out: DIZ
[39] = system: Escherichia coli; test: Antimicrobial activity against Escherichia coli MTCC 443 assessed as diameter of growth inhibition zone at 50 ug/ml after 18-24 hr by agar cup diffusion method; conditions: read-out: DIZ
[40] = system: Staphylococcus aureus; test: Antimicrobial activity against Staphylococcus aureus MTCC 96 assessed as diameter of growth inhibition zone at 50 ug/ml after 18-24 hr by agar cup diffusion method; conditions: read-out: DIZ
[41] = system: Streptococcus pyogenes; test: Antimicrobial activity against Streptococcus pyogenes MTCC 442 assessed as diameter of growth inhibition zone at 50 ug/ml after 18-24 hr by agar cup diffusion method; conditions: read-out: DIZ
[42] = system: Klebsiella pneumoniae; test: Antimicrobial activity against Klebsiella pneumoniae MTCC 109 assessed as diameter of growth inhibition zone at 25 ug/ml after 18-24 hr by agar cup diffusion method; conditions: read-out: DIZ
[43] = system: Trichophyton rubrum; test: Antimicrobial activity against Trichophyton rubrum MTCC 296 assessed as diameter of growth inhibition zone at 250 ug/ml after 48-96 hr by agar cup diffusion method; conditions: read-out: DIZ
[44] = system: Aspergillus clavatus; test: Antimicrobial activity against Aspergillus clavatus MTCC 1323 assessed as diameter of growth inhibition zone at 250 ug/ml after 48-96 hr by agar cup diffusion method; conditions: read-out: DIZ
[45] = system: Candida albicans; test: Antimicrobial activity against Candida albicans MTCC 227 assessed as diameter of growth inhibition zone at 250 ug/ml after 48-96 hr by agar cup diffusion method; conditions: read-out: DIZ

SMILES: COc1ccc(/C=C/C(=O)C2C(=O)NC(=S)NC2=O)cc1OC
- zone of inhibition at 250 µg/mL [1]: 24 mm
- zone of inhibition at 100 µg/mL [2]: 22 mm
- zone of inhibition at 100 µg/mL [3]: 23 mm
- zone of inhibition at 100 µg/mL [4]: 21 mm
- zone of inhibition at 100 µg/mL [5]: 25 mm
- zone of inhibition at 50 µg/mL [6]: 20 mm
- zone of inhibition at 50 µg/mL [7]: 22 mm
- zone of inhibition at 50 µg/mL [8]: 20 mm
- zone of inhibition at 50 µg/mL [9]: 24 mm
- zone of inhibition at 25 µg/mL [10]: 19 mm
- zone of inhibition at 25 µg/mL [11]: 21 mm
- zone of inhibition at 25 µg/mL [12]: 18 mm
- zone of inhibition at 25 µg/mL [13]: 20 mm
- MFC [14]: 1000 µg/mL (≈ 2990 µM)
- MIC [14]: 1000 µg/mL (≈ 2990 µM)
- MFC [15]: 1000 µg/mL (≈ 2990 µM)
- MIC [15]: 1000 µg/mL (≈ 2990 µM)
- zone of inhibition at 25 µg/mL [16]: 11 mm
- zone of inhibition at 25 µg/mL [17]: 12 mm
- zone of inhibition at 25 µg/mL [18]: 11 mm
- zone of inhibition at 25 µg/mL [19]: 12 mm
- MBC [20]: 500 µg/mL (≈ 1500 µM)
- MIC [20]: 250 µg/mL (≈ 748 µM)
- MBC [21]: 500 µg/mL (≈ 1500 µM)
- MIC [21]: 500 µg/mL (≈ 1500 µM)
- MBC [22]: 200 µg/mL (≈ 598 µM)
- MIC [22]: 200 µg/mL (≈ 598 µM)
- MBC [23]: 500 µg/mL (≈ 1500 µM)
- MIC [23]: 500 µg/mL (≈ 1500 µM)
- MBC [24]: 100 µg/mL (≈ 299 µM)
- MIC [24]: 62.5 µg/mL (≈ 187 µM)
- MFC [25]: 500 µg/mL (≈ 1500 µM)
- MIC [25]: 500 µg/mL (≈ 1500 µM)
- MFC [26]: 1000 µg/mL (≈ 2990 µM)
- MIC [26]: 500 µg/mL (≈ 1500 µM)
- zone of inhibition at 250 µg/mL [27]: 19 mm
- zone of inhibition at 250 µg/mL [28]: 20 mm
- zone of inhibition at 250 µg/mL [29]: 21 mm
- zone of inhibition at 250 µg/mL [30]: 20 mm
- zone of inhibition at 250 µg/mL [31]: 21 mm
- zone of inhibition at 100 µg/mL [32]: 18 mm
- zone of inhibition at 100 µg/mL [33]: 18 mm
- zone of inhibition at 100 µg/mL [34]: 18 mm
- zone of inhibition at 100 µg/mL [35]: 18 mm
- zone of inhibition at 100 µg/mL [36]: 18 mm
- zone of inhibition at 50 µg/mL [37]: 15 mm
- zone of inhibition at 50 µg/mL [38]: 15 mm
- zone of inhibition at 50 µg/mL [39]: 16 mm
- zone of inhibition at 50 µg/mL [40]: 15 mm
- zone of inhibition at 50 µg/mL [41]: 16 mm
- zone of inhibition at 25 µg/mL [42]: 14 mm
- zone of inhibition at 250 µg/mL [43]: 24 mm
- zone of inhibition at 250 µg/mL [44]: 23 mm
- zone of inhibition at 250 µg/mL [45]: 25 mm
